Experimental findings from patent US20110053897A1 (IRM LLC, priority 2009, published 2011) are described below.

For the first test, the target named is T1, Syk kinase (Homo sapiens, UniProt P43405).
T1 construct: purchased
Description: Syk kinase inhibition, Caliper LabChip off-chip mobility-shift kinase assay. It is filed as biochemical. As to conditions: Caliper LabChip assay; read-out: Syk Enzyme IC50. In a few lines: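 Purified Syk pre-incubated 15 min with compound in 100 mM HEPES pH 7.5, 1 mM DTT, 10 mM MgCl2 or MnCl2, 0.002% Brij-35, then 1.5 μM fluorescein peptide and ATP at apparent KM added; 1–1.5 h at room temperature, 4% DMSO, EDTA stop. Microfluidic mobility-shift product/substrate conversion gave % inhibition; IC50 from 12-point series (10–0.00003 μM) by 4-parameter fit.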
A word on the IC50: it is the concentration that inhibits the measured activity by half. `Cc1ccnc(Nc2cc3ccn(CCO)c(=O)c3c(NC3(C)CCC3)n2)c1` [compound 599]: the half-maximal inhibitory concentration (IC50) worked out at 286 nM. Regarding `CCn1ccc2cc(Nc3cc(C)ccn3)nc(N[C@@H]3CC[C@@H](O)C3)c2c1=O` [compound 1040], the IC50 amounted to 84 nM. The same measure, in the same setting: under `CC(C)(Cc1ccc(F)cc1)Nc1nc(-c2cnc(N)nc2)cc2ccn(CCO)c(=O)c12` [compound 925] stands 145 nM; under `CC1(Cn2ccc3cc(-c4cnc(N)nc4)nc(NC(C)(C)C)c3c2=O)COC1` [compound 924], 13 nM.

With `O=c1c2c(NC3CC3)nc(Nc3cnccn3)cc2ccn1CCO` [compound 818], the half-inhibitory concentration (IC50) was 27 nM. Turning to `CC1(Nc2nc(-c3cnc(N)nc3)cc3ccn(C4COC4)c(=O)c23)CCC1` [compound 931], the IC50 is 15 nM. Consider `C=Cc1ccnc(Nc2cc3ccn(CCO)c(=O)c3c(NC(C)(C)C)n2)c1` [compound 858], for which the IC50 was 46 nM. Take `[2H]C([2H])([2H])n1ccc2cc(Nc3cnccn3)nc(NC3CC3)c2c1=O` [compound 824]: the IC50 is 18 nM. Consider `CC(C)(C)Nc1nc(Nc2cc(-c3cnn(CC(N)=O)c3)ccn2)cc2ccn(CCO)c(=O)c12` [compound 849], for which the IC50 came out at 102 nM. As for `CC(C)(C)Nc1nc(Nc2cc(C(O)C(F)(F)F)ccn2)cc2ccn(CC(N)=O)c(=O)c12` (stereo not drawn) [compound 613], the IC50 came out at 142 nM. Consider `COCCn1ccc2cc(Nc3cnccn3)nc(NC(C)(C)C)c2c1=O` [compound 1006], for which the IC50 stood at 96 nM. Consider `Nc1ncc(-c2cc3ccn(C[C@H](O)CO)c(=O)c3c(NC3CCC3)n2)cn1` [compound 774], for which the IC50 is 34 nM. On to `CCn1ccc2cc(-c3cnc(N)nc3)nc(NC(C)(C)CO)c2c1=O` [compound 904], for which the IC50 was 4 nM. Turning to `CC[C@@H](CO)Nc1nc(Nc2cc(C)ccn2)cc2ccn(CC)c(=O)c12` [compound 597], the 50% inhibitory concentration (IC50) was found to be 81 nM.

`Cc1cc(-c2ccnc(Nc3cc4ccn(CCO)c(=O)c4c(NC(C)(C)C)n3)c2)ccn1` [compound 854]: the IC50 came out at 64 nM. Take `CC1(Nc2nc(Nc3cc(C(C)(C)O)ncn3)cc3ccn(CC(N)=O)c(=O)c23)CC1` [compound 620]: the IC50 is 148 nM.

For `CC(C)Nc1nc(-c2cnc(N)nc2)cc2ccn(CCO)c(=O)c12` [compound 892], the IC50 was found to be 136 nM. With `CC(C)n1ccc2cc(Nc3cc(C(C)(C)O)ccn3)nc(N[C@H]3CC[C@@H](O)CC3)c2c1=O` [compound 706], the IC50 worked out at 55 nM.

Consider `CC(C)n1ccc2cc(Nc3c[n+]([O-])ccn3)nc(N[C@H]3CC[C@@H](O)C3)c2c1=O` [compound 1017], for which the half-inhibitory concentration (IC50) is 25 nM. For the compound `O=c1[nH]ccc2cc(NC3CCC(O)CC3)nc(Nc3ccc(N4CCOCC4)cc3)c12` (stereo not drawn) [compound 657], the half-maximal inhibitory concentration (IC50) was 152 nM. Take `CS(=O)(=O)CCn1ccc2cc(Nc3cnccn3)nc(N[C@H]3CC[C@H](O)CC3)c2c1=O` [compound 982]: the IC50 turned out to be 22 nM. Consider `COCc1ccnc(Nc2cc3ccn(CCO)c(=O)c3c(NC(C)(C)C)n2)c1` [compound 709], for which the IC50 was determined as 11 nM. In the case of `[2H]C([2H])([2H])n1ccc2cc(Nc3cc(Cl)ccn3)nc(N[C@@H](C)CO)c2c1=O` [compound 1051], the concentration for half-maximal inhibition (IC50) is 60.4 nM. The same measure, in the same setting: the value for `CC1(Nc2nc(Nc3cc(C(C)(C)O)ccn3)cc3ccn(CC(N)=O)c(=O)c23)CC1` [compound 724] was 203 nM; that for `CCn1ccc2cc(Nc3cc(C)ccn3)nc(N[C@@H]3CCC[C@H]3O)c2c1=O` [compound 939] was 1050 nM; that for `CC(C(N)=O)n1ccc2cc(-c3cnc(N)nc3)nc(NC(C)(C)C)c2c1=O` (stereo not drawn) [compound 665] was 5 nM. `CC(C)(C)Nc1nc(Nc2cc(CNCCO)ccn2)cc2ccn(CCO)c(=O)c12` [compound 608]: the IC50 was < 5.65 nM.

On to `CCn1ccc2cc(Nc3cc(C)ccn3)nc(N[C@H]3CC[C@@H](CO)C3)c2c1=O` [compound 792], for which the IC50 is 33 nM. As for `Cc1ccnc(Nc2cc3ccn(C(C)C)c(=O)c3c(N[C@H]3CC[C@H](O)CC3)n2)c1` [compound 964], the IC50 was 51 nM.

In the case of `[2H]C([2H])([2H])n1ccc2cc(Nc3cc(C)c(F)cn3)nc(NC(C)(C)CO)c2c1=O` [compound 1049], the IC50 stood at 89.9 nM.

Staying with this test, now noted: read-out: Syk Enzyme IC50.
Regarding `CCN1CCN(CCc2ccc(Nc3nc(Nc4ccc(C(=O)O)cn4)cc4cc[nH]c(=O)c34)cc2)CC1` [compound 581], the IC50 came out at 16 nM.

With `COc1cncc(-c2cc3cc[nH]c(=O)c3c(Nc3ccc(CCN4CCC(F)(F)CC4)cc3)n2)n1` [compound 44], the IC50 is 638 nM. As to `CCN1CCN(CCc2ccc(Nc3nc(-c4ccc(C)nc4)cc4c(F)c[nH]c(=O)c34)cc2)CC1` [compound 443], the IC50 came to 419 nM. As for `CCn1ccc2cc(Nc3cc(Cl)ccn3)nc(N[C@H]3CC[C@@H](O)CC3)c2c1=O` [compound 383], the IC50 is 26 nM. Take `CN1CCC(Nc2nc(-c3cnc(N)nc3)cc3ccn(C)c(=O)c23)CC1` [compound 31]: the IC50 came to 1770 nM. Turning to `CC(=O)N1CCC(c2ccc(Nc3nc(Nc4cc(C)ccn4)cc4ccn(C)c(=O)c34)cc2)CC1` [compound 310], the IC50 was 763 nM.

Turning to `COC(=O)CCN1CCC(c2ccc(Nc3nc(-c4cncc(OC)n4)cc4cc[nH]c(=O)c34)cc2C)CC1` [compound 160], the IC50 stood at 81 nM. For the compound `CC(C)(CO)Nc1nc(Nc2cnccn2)cc2ccn(CCO)c(=O)c12` [compound 473], the IC50 turned out to be 114 nM. On to `COCC(C)Nc1nc(-c2cnc(N)nc2)cc2cc[nH]c(=O)c12` (stereo not drawn) [compound 180], for which the half-maximal inhibitory concentration (IC50) is 115 nM. Consider `Cc1cc(Nc2nc(-c3ccnc(N)n3)cc3cc[nH]c(=O)c23)ccc1C1CCN(CCC#N)CC1` [compound 67], for which the concentration for half-maximal inhibition (IC50) came to 328 nM.

On to `Cc1ccnc(Nc2cc3ccn(C)c(=O)c3c(NCCCO)n2)c1` [compound 503], for which the half-inhibitory concentration (IC50) was determined as 84 nM.

For `Cc1ccnc(Nc2cc3cc[nH]c(=O)c3c(NCC(F)(F)F)n2)c1` [compound 516], the IC50 stood at 152 nM.

In the case of `COc1cncc(-c2cc3cc[nH]c(=O)c3c(Nc3ccc(C4CCN(CCC(=O)N(C)C)CC4)c(C)c3)n2)n1` [compound 159], the IC50 was 38 nM. Consider `O=C1CCC(c2ccc(Nc3nc(-c4cncnc4)cc4cc[nH]c(=O)c34)cc2)CC1` [compound 91], for which the 50% inhibitory concentration (IC50) worked out at 400 nM.

`Cc1ncc(-c2cc3cc[nH]c(=O)c3c(Nc3ccc(N4C[C@@H](C)O[C@@H](C)C4)nc3)n2)cn1` [compound 17]: the IC50 is 163 nM. On the same count and under the same terms, the value for `CNC(C)(C)C(=O)N1CCC(c2ccc(Nc3nc(-c4cncc(OC)n4)cc4cc[nH]c(=O)c34)cc2C)CC1` [compound 84] was 5 nM. For `Cc1ccnc(Nc2cc3ccn(CCO)c(=O)c3c(NC(C)C)n2)c1` [compound 313], the half-inhibitory concentration (IC50) is 85 nM. As for `CC(C)Nc1nc(Nc2cc(C(=O)O)ccn2)cc2cc[nH]c(=O)c12` [compound 587], the IC50 was 226 nM. For the compound `CCOCCOc1cccc(Nc2nc(Nc3cc(C)ccn3)cc3ccn(C)c(=O)c23)c1` [compound 335], the IC50 was 1610 nM.

As to `COc1cncc(-c2cc3cc[nH]c(=O)c3c(Nc3ccc(C4CCN(C5CCCC5)CC4)c(C)c3)n2)n1` [compound 62], the IC50 came out at 11 nM. As to `CCN1CCN(CCc2ccc(Nc3nc(-c4cnn(CC(C)C)c4)cc4c(F)c[nH]c(=O)c34)cc2)CC1` [compound 445], the concentration for half-maximal inhibition (IC50) came out at 300 nM. Regarding `Cc1ccnc(Nc2cc3cc[nH]c(=O)c3c(N3CC[C@@H](CO)C3)n2)c1` [compound 399], the IC50 was 998 nM. On to `O=c1[nH]ccc2cc(Nc3cc(CO)ccn3)nc(NC3CC3)c12` [compound 518], for which the half-inhibitory concentration (IC50) was 59 nM. As for `CNC(=O)CCN1CCC(c2ccc(Nc3nc(-c4cncc(OC)n4)cc4cc[nH]c(=O)c34)cc2C)CC1` [compound 161], the concentration for half-maximal inhibition (IC50) stood at 18 nM. As for `CCn1ccc2cc(Nc3cc(C)ccn3)nc(N[C@H]3CCOC3)c2c1=O` [compound 361], the IC50 was 30 nM. In the case of `O=c1[nH]ccc2cc(-c3cncnc3)nc(Nc3ccc([C@H]4CC[C@@H](N5CCOCC5)CC4)cc3)c12` [compound 10], the IC50 was 266 nM. Same read-out and setting: under `COc1cncc(-c2cc3cc[nH]c(=O)c3c(Nc3ccc(CCn4cncn4)cc3)n2)n1` [compound 24] stands 122 nM; under `O=c1[nH]ccc2cc(Nc3ccccn3)nc(NC3CC3)c12` [compound 524], 199 nM; under `Cn1ccc2cc(Nc3cnccn3)nc(N[C@H]3CCC[C@H]3O)c2c1=O` (racemic) [compound 328], 39 nM. Consider `CCOCCc1cc2cc[nH]c(=O)c2c(Nc2ccc(C3CCN(C4CC4)CC3)c(C)c2)n1` [compound 227], for which the IC50 was found to be 398 nM. As to `Cc1ccnc(Nc2cc3cc[nH]c(=O)c3c(N3CC[C@@H](O)C3)n2)c1` [compound 401], the half-maximal inhibitory concentration (IC50) amounted to 967 nM.

With `[2H]C([2H])([2H])n1ccc2cc(Nc3cc(Cl)ccn3)nc(N[C@@H](C)CO)c2c1=O` [compound 403], the concentration for half-maximal inhibition (IC50) turned out to be 60.4 nM. Turning to `[2H]C([2H])([2H])n1ccc2cc(Nc3cc(C)c(F)cn3)nc(NC3CC3)c2c1=O` [compound 547], the IC50 is 415 nM. Take `COCC(C)Nc1nc(Nc2ccccn2)cc2cc[nH]c(=O)c12` (stereo not drawn) [compound 276]: the IC50 is 167 nM. In the case of `CCn1ccc2cc(Nc3cnccn3)nc(NC(C)(C)C)c2c1=O` [compound 465], the IC50 is 147 nM. In the case of `CCn1ccc2cc(Nc3cnccn3)nc(N[C@H]3CC[C@@H](O)CC3)c2c1=O` [compound 356], the IC50 stood at 10 nM. For `CCOCCOc1ccc(Nc2nc(Nc3cc(C)ccn3)cc3ccn(C)c(=O)c23)cc1` [compound 334], the IC50 was 1720 nM.

Take `[2H]C([2H])([2H])n1ccc2cc(Nc3cc(C)ccn3)nc(N[C@@H](C)CO)c2c1=O` [compound 398]: the IC50 is 46 nM. Same read-out and setting: under `CC(C)CC(C)Nc1nc(Nc2ccccn2)cc2cc[nH]c(=O)c12` (stereo not drawn) [compound 275] stands 3200 nM.
